Data as given in patent US11851406B2, “Positive allosteric modulators of the muscarinic acetylcholine receptor M1” (Vanderbilt University, priority 2018, dated 2023).

Tests used:
human mAChR M1 [1] = target: T1, human mAChR M1 (Homo sapiens, UniProt P11229); experiment: mAChR M1 cell-based functional assay (calcium mobilization), PAM activity: increase in the EC20 acetylcholine response; conditions: CHO-K1 cells expressing hM1; calcium flux (Fluo-4); potentiation of EC20 acetylcholine response
T1 sequence (P11229 1-460): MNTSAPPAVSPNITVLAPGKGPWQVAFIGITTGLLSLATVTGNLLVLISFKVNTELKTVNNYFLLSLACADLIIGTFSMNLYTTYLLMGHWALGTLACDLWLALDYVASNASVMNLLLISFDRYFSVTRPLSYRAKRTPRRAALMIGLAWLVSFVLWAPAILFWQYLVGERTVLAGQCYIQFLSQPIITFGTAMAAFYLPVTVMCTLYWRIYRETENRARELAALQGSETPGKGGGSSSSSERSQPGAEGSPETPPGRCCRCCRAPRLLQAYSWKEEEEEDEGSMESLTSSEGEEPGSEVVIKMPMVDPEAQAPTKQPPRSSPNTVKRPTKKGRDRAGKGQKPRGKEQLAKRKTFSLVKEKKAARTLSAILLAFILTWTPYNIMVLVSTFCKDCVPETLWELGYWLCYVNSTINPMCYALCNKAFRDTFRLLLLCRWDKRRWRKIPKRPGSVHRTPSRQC
Description: (§1) Chinese hamster ovary (CHO-K1) cells stably expressing rat (r)M1 were purchased from the American Type Culture Collection and cultured according to their indicated protocol. CHO cells stably expressing human (h)M2, hM3, and hM5 were described previously (Levey, et al., 1991); hM1 and hM4 cDNAs were purchased from Missouri S&T cDNA Resource; rM4 cDNA was provided by T. I. Bonner (National Institutes of Health, Bethesda, Md.). rM2 and rM3 were cloned from a rat brain cDNA library and sequence verified. hM1, rM2, rM3, hM4, and rM4 cDNAs were used to stably transfect CHO-K1 cells purchased from the American Type Culture Collection using Lipofectamine2000. To make stable rM2, hM2, rM3, hM4, and rM4 cell lines for use in calcium mobilization assays, these cells also were stably transfected with a chimeric G-protein (Gqi5) (provided by B. R. Conklin, University of California, San Francisco) using Lipofectamine 2000. rM1, hM1, rM3, hM3, rM5, and hM5 cells were grown in Ham's F-12 medium containing 10% heat-inactivated fetal bovine serum (FBS), 20 mM HEPES, and 50 μg/mL G418 sulfate. rM2-Gqi5, hM2-Gqi5, and hM4-Gqi5 cells were grown in the same medium also containing 500 μg/mL Hygromycin B. Stable rM4-Gqi5 cells were grown in DMEM containing 10% heat-inactivated FBS, 20 mM HEPES, 400 μg/mL G418 sulfate, and 500 μg/mL Hygromycin B.
(§2) For high throughput measurement of agonist-evoked increases in intracellular calcium, CHO-K1 cells stably expressing muscarinic receptors were plated in growth medium lacking G418 and hygromycin at 15,000 cells/20 μL/well in Greiner 384-well black-walled, tissue culture (TC)-treated, clear-bottom plates (VWR). Cells were incubated overnight at 37° C. and 5% CO2. The next day, cells were washed using an ELX 405 (BioTek) with four washes (80 μL) of assay buffer then aspirated to 20 μL. Next, 20 μL of 16 μM Fluo-4/acetoxymethyl ester (Invitrogen, Carlsbad, Calif.) prepared as a 2.3 mM stock in DMSO and mixed in a 1:1 ratio with 10% (w/v) Pluronic F-127 and diluted in assay buffer was added to the wells and the cell plates were incubated for 50 min at 37° C. and 5% CO2. Dye was removed by washing with the ELX 405 (four 80 μL washes of assay buffer) then aspirated to 20 μL. Compound master plates were formatted in an 11 point CRC format (1:3 dilutions) in 100% DMSO with a starting concentration of 10 mM using the BRAVO liquid handler (Agilent). Test compound CRCs were then transferred to daughter plates (240 nL) using the Echo acoustic plate reformatter (Labcyte, Sunnyvale, Calif.) and then diluted into assay buffer (40 μL) to a 2× stock using a Thermo Fisher Combi (Thermo Fisher Scientific, Waltham, Mass.).
(§3) Calcium flux was measured using the Functional Drug Screening System (FDSS) 6000 (Hamamatsu Corporation, Tokyo, Japan) as an increase in the fluorescent static ratio. Compounds were applied to cells (20 μL, 2×) using the automated system of the FDSS 6000 at 4 s into the 300 s protocol and the data were collected at 1 Hz. At 144 s into the 300 s protocol, 10 μL of an EC20 concentration of the muscarinic receptor agonist acetylcholine was added (5×), followed by the addition of 12 μL an EC80 concentration of acetylcholine at the 230 s time point (5×). Agonist activity was analyzed as a concentration-dependent increase in calcium mobilization upon compound addition. Emax values for agonist activity are expressed relative to the maximum for acetylcholine. Positive allosteric modulator activity was analyzed as a concentration-dependent increase in the EC20 acetylcholine response. Antagonist activity was analyzed as a concentration-dependent decrease in the EC80 acetylcholine response. Concentration-response curves were generated using a four-parameter logistical equation in XLfit curve fitting software (IDBS, Bridgewater, N.J.) for Excel (Microsoft, Redmond, Wash.) or Prism (GraphPad Software, Inc., San Diego, Calif.).

human mAChR M1 [2] = target: T1, human mAChR M1; experiment: mAChR M1 cell-based functional assay (calcium mobilization), agonist activity upon compound addition alone; conditions: CHO-K1 cells expressing hM1; for EC50: calcium mobilization upon compound addition, no acetylcholine; for Emax: compound alone, relative to the maximum for acetylcholine
Description: as §1, §2, §3

Row | SMILES | Emax (human mAChR M1 [1]) | EC50 (human mAChR M1 [2]) | Emax (human mAChR M1 [2]) | EC50 (human mAChR M1 [1])
1 | Cn1cc(-c2cc(Cc3ccc(-c4ccn(C)n4)cc3)cc(C(=O)N[C@H]3CCOC[C@@H]3O)n2)cn1 [Compound 39, N-((3R,4S)-3-hydroxytetrahydro-2H-pyran-4-yl)-4-(4-(1-methyl-1H-pyrazol-3-yl)benzyl)-6-(1-methyl-1H-pyrazol-4-yl)picolinamide] | 57% | > 10 µM | < 5% | 2.85 µM
2 | Cc1c(Cc2ccc(-c3ccn(C)n3)cc2)cc(C(=O)N[C@H]2CCCC[C@@H]2O)nc1-c1ccn(C)n1 [Compound 10, N-((1S,2S)-2-hydroxycyclohexyl)-5-methyl-6-(1-methyl-1H-pyrazol-3-yl)-4-(4-(1-methyl-1H-pyrazol-3-yl)benzyl)picolinamide] | 86% | ≥ 10 µM | 13% | 0.91 µM
3 | Cn1cc(-c2ccc(Cc3cc(C(=O)N[C@H]4CCC[C@@H]4O)nc(-c4ccn(C)n4)c3)cn2)cn1 [Compound 6, N-((1S,2S)-2-hydroxycyclopentyl)-6-(1-methyl-1H-pyrazol-3-yl)-4-((6-(1-methyl-1H-pyrazol-4-yl)pyridin-3-yl)methyl)picolinamide] | 67% | > 10 µM | < 5% | 
4 | Cc1nc(-c2ccc(Cc3cc(C(=O)NC4CCOCC4)nc(-n4cccn4)c3)cc2)co1 [Compound 27, 4-(4-(2-methyloxazol-4-yl)benzyl)-6-(1H-pyrazol-1-yl)-N-(tetrahydro-2H-pyran-4-yl)picolinamide] | 62% | > 10 µM | 6% | 
5 | Cc1ccc(Cc2cc(C(=O)N[C@H]3CCC[C@@H]3O)nc(-c3ccn(C)n3)c2C)cn1 [Compound 67, N-((1S,2S)-2-hydroxycyclopentyl)-5-methyl-6-(1-methyl-1H-pyrazol-3-yl)-4-((6-methylpyridin-3-yl)methyl)picolinamide] | 38% | > 10 µM | < 5% | 
6 | Cc1c(Cc2ccc(-c3ccn(C)n3)cc2)cc(C(=O)NC2CCOCC2(C)C)nc1-c1ccn(C)n1 (centres unmarked) [Compound 17, N-(3,3-dimethyltetrahydro-2H-pyran-4-yl)-5-methyl-6-(1-methyl-1H-pyrazol-3-yl)-4-(4-(1-methyl-1H-pyrazol-3-yl)benzyl)picolinamide] | 86% | > 10 µM | < 5% | 2.26 µM
7 | Cc1c(Cc2ccc(-n3cccn3)cc2)cc(C(=O)NC2CCOCC2)nc1-c1ccn(C)n1 [Compound 57, 4-(4-(1H-pyrazol-1-yl)benzyl)-5-methyl-6-(1-methyl-1H-pyrazol-3-yl)-N-(tetrahydro-2H-pyran-4-yl)picolinamide] | 81% | > 10 µM | < 5% | 5.7 µM
8 | Cn1ccc(-c2ccc(Cc3cc(C(=O)N[C@H]4CCC[C@@H]4O)nc(-c4ccn(C)n4)c3)cc2)n1 [Compound 38, N-((1S,2S)-2-hydroxycyclopentyl)-6-(1-methyl-1H-pyrazol-3-yl)-4-(4-(1-methyl-1H-pyrazol-3-yl)benzyl)picolinamide] | 39% | > 10 µM | < 5% | 2.72 µM

Other lines, results leading:

Row | Emax (human mAChR M1 [1]) | EC50 (human mAChR M1 [2]) | Emax (human mAChR M1 [2]) | EC50 (human mAChR M1 [1]) | SMILES
9 | 66% | > 10 µM | < 5% |  | Cc1ccc(Cc2cc(C(=O)N[C@H]3CCCC[C@@H]3O)nc(-c3ccn(C)n3)c2C)cn1 [Compound 66, N-((1S,2S)-2-hydroxycyclohexyl)-5-methyl-6-(1-methyl-1H-pyrazol-3-yl)-4-((6-methylpyridin-3-yl)methyl)picolinamide]
10 | 69% | > 10 µM | < 5% |  | Cc1nc(-c2ccc(Cc3cc(C(=O)NC4CCOCC4)nc(-n4cccn4)c3C)cc2)co1 [Compound 51, 5-methyl-4-(4-(2-methyloxazol-4-yl)benzyl)-6-(1H-pyrazol-1-yl)-N-(tetrahydro-2H-pyran-4-yl)picolinamide]
11 | 47% | > 10 µM | 5% |  | Cn1cc(-c2ccc(Cc3cc(C(=O)NC4CCOCC4)nc(-n4cccn4)c3)cn2)cn1 [Compound 26, 4-((6-(1-methyl-1H-pyrazol-4-yl)pyridin-3-yl)methyl)-6-(1H-pyrazol-1-yl)-N-(tetrahydro-2H-pyran-4-yl)picolinamide]
12 | 57% | > 10 µM | < 5% | 9.44 µM | Cn1cc(-c2cc(Cc3ccc(-c4ccn(C)n4)cc3)cc(C(=O)N[C@H]3CCCC[C@@H]3O)n2)cn1 [Compound 40, N-((1S,2S)-2-hydroxycyclohexyl)-4-(4-(1-methyl-1H-pyrazol-3-yl)benzyl)-6-(1-methyl-1H-pyrazol-4-yl)picolinamide]
13 | 78% | > 10 µM | 7% | 1.07 µM | Cn1ccc(-c2ccc(Cc3cc(C(=O)N[C@H]4CCOC[C@@H]4O)nc(-n4cccn4)c3)cc2)n1 [Compound 28, N-((3R,4S)-3-hydroxytetrahydro-2H-pyran-4-yl)-4-(4-(1-methyl-1H-pyrazol-3-yl)benzyl)-6-(1H-pyrazol-1-yl)picolinamide]
14 | 85% | 9.08 µM | 29% | 0.675 µM | Cc1c(Cc2ccc(-c3cnn(C)c3)nc2)cc(C(=O)N[C@H]2CCCC[C@@H]2O)nc1-n1cccn1 [Compound 47, N-((1S,2S)-2-hydroxycyclohexyl)-5-methyl-4-((6-(1-methyl-1H-pyrazol-4-yl)pyridin-3-yl)methyl)-6-(1H-pyrazol-1-yl)picolinamide]
15 | 85% | > 10 µM | < 5% | 8.72 µM | Cc1c(Cc2ccc(-c3ccn(C)n3)cc2)cc(C(=O)NC2CCOCC2)nc1-c1ccn(C)n1 [Compound 1, 5-methyl-6-(1-methyl-1H-pyrazol-3-yl)-4-(4-(1-methyl-1H-pyrazol-3-yl)benzyl)-N-(tetrahydro-2H-pyran-4-yl)picolinamide]
16 | 77% | > 10 µM | < 5% | 4.63 µM | Cc1c(Cc2ccc(-n3cccn3)cc2)cc(C(=O)NC[C@@H]2CCCO2)nc1-c1ccn(C)n1 [Compound 62, (S)-4-(4-(1H-pyrazol-1-yl)benzyl)-5-methyl-6-(1-methyl-1H-pyrazol-3-yl)-N-((tetrahydrofuran-2-yl)methyl)picolinamide]
17 | 79% | 7.78 µM | 26% | 0.307 µM | Cc1c(Cc2ccc(-c3ccn(C)n3)cc2)cc(C(=O)N[C@H]2CCCC[C@@H]2O)nc1-n1cccn1 [Compound 41, N-((1S,2S)-2-hydroxycyclohexyl)-5-methyl-4-(4-(1-methyl-1H-pyrazol-3-yl)benzyl)-6-(1H-pyrazol-1-yl)picolinamide]
